The subject of series [1] is MDA-MB-231 human breast cancer cell line mouse xenografts (tumor fragments). The series can be described thus: 2D 96-well plate control: tumor fragment drug screening, live/dead viability and COMPUSYN combination index. To be noted: 2D 96-well control, three days, drug refreshed every 12 h. The series is classed as cell-based.
The test system is the same in series [2]. Description: 3D ECM microsystem (collagen tumor-on-a-chip): tumor fragment drug screening, live/dead viability and COMPUSYN combination index. The series is classed as cell-based. The settings on record: three days.
A short description of series [3]: Drug gradient characterization in 3D collagen scaffold by confocal microscopy. The series is classed as physicochemical. The settings on record: confocal fluorescence; doxorubicin after 24 h, left to right channel.
The subject of series [4] is MDA-MB-231 cell. The settings on record: previously reported; cited from earlier work.

SMILES strings stand for the structures.

Consider one compound from patent US12577522B2, “System and method for screening therapeutic agents” (Carnegie Mellon University, priority 2020, dated 2026).

As for `COc1cccc2c1C(=O)c1c(O)c3c(c(O)c1C2=O)C[C@@](O)(C(=O)CO)C[C@@H]3O[C@H]1C[C@H](N)[C@H](O)[C@H](C)O1` [doxorubicin], the “tumor viability (live/dead staining)” value in series [1] is “dose-dependent decrease in viability”; in series [2] (3D ECM microsystem, drug replenished every 12 h) it was “dose-dependent decrease in viability”. In addition, the “viability in 3D ECM microsystem relative to 2D controls” value in series [2] (doses in 2D matched to 48 h simulated concentration) is listed as “lower viability compared to 2D controls”. Also, the “diffusion profile in 3D collagen scaffold” value in series [3] was “approximately linear concentration profile”. Also, the “median effect dose (Dm)” value in series [4] is on record as “much lower than 4-hydroxycyclophosphamide”.
